Laboratory results from US20230035057A1, “METHOD OF TREATMENT OF SLEEP APNEA” (PRIMAVERA BIOSCIENCES, INC., priority 2021, published 2023).

Test system: sleep apnea patient
Experiment: Oxygen saturation (SpO2) monitoring during sleep with Wellure's O2Ring in a sleep apnea patient
Assay type: in vivo
Source text: FIG. 1 is a diagram showing sleep apnea patient's oxygen saturation levels (SpO2). Oxygen saturation levels (SpO2) in the blood during sleep were monitored using Wellure's O2Ring.
(§1) Oxygen saturation levels (SpO2) in the blood during sleep were monitored using Wellure's O2Ring.
as §1

In the case of `CN[C@@H](C)[C@H](O)c1ccccc1` [ephedrine], the “breathing problems observed in FIG. 1” value (FIG. 2, 25 mg ephedrine one hour before bed plus Avinol PM, in the first three hours, came back afterwards) is reported as “greatly reduced”, the “sleep apnea patient's oxygen saturation levels (SpO2)” value (FIG. 2, 25 mg of ephedrine one hour before going to bed along with sleeping pill Avinol PM just before going to bed) is reported as “improved” and the “sleep apnea patient's oxygen saturation levels (SpO2)” value (FIG. 3, 25 mg ephedrine one hour before bed plus one tablet Avinol PM just before bed, another 25 mg ephedrine three hours after going to bed) is reported as “improved”. For the same compound, the “breathing problems caused by sleep apnea” value (general statement, dose not given) was “reduces”.
